Like-named read-outs stand apart in the source and are kept apart here.
Assays:
[1] = system: isoflurane-anesthetized SD rats; experiment: In vivo echocardiography of systolic cardiac performance (FS, SWT, HR, LV volumes) after a single oral dose; conditions: Rattus norvegicus, single dose 10 mg/kg PO, ~2 hrs post-dosing, vs. vehicle
Experimental: Experiments were performed to evaluate the in vivo ability of the compounds of the disclosure to modulate systolic cardiac performance. Non-invasively echocardiography was used to assess cardiac indicators in isoflurane-anesthetized SD rats. A set of conscious rats were treated with either vehicle control (0 mg/kg PO; n=78) or a single dose of an test compound (10 mg/kg PO, n=2 to 6/compound) via oral gavage. Cardiac function/geometry were recorded at two separate time-points/days: once prior to dosing (i.e., at baseline, day −2) and at ˜2 hrs post-dosing (day 0).
In these experiments, heart rate (HR), echocardiography-derived indices of left-ventricular systolic performance, as well as dimensions/volumes were measured using a high-frequency transducer and parastemnal long-axis transthoracic views (Vevo3100, VisualSonic). LV fractional shortening (FS), an index of systolic function, was defined as the end-diastole normalized change in internal dimensions divided by the […] (LVid) of the left ventricle between end-systole (LVids) and end-diastole (LVidd) (i.e., FS=100·[LVidd−LVids]/LVidd). LV volumes were derived using the Teichholz formula (LVV=7·LVid^3/[2.4+LVid]). In addition, a systolic wall-thickening index (SWT) was also evaluated. SWT is defined as the relative ratio (end-diastole normalized) of left-ventricular (anterior and posterior) wall-thickness change during systole; i.e., SWT=I{[(anterior LV wall thickness in systole−anterior LV wall thickness in diastole)][…][(posterior LV wall thickness in systole−posterior LV wall thickness in diastole)]}/{2*diastolic thickness}. In all cases, blood samples were taken (via either tail-vein micro-sampling or cardiac-puncture) at the time of each echocardiographic examination in order to establish pharmacokinetic (PK)/pharmacodynamics (PD) relationships.

[2] = biological target: T1, Porcine Ventricle myofibrils (left ventricle of Yucatan minipigs) (Sus scrofa, UniProt P79293); experiment: Myofibril ATPase assay (PK/LDH NADH-coupled), ventricle myofibrils; type: biochemical
T1 construct: Myofibrils from porcine cardiac muscle was isolated from the left ventricle of Yucatan minipigs; tissue Exemplar Genetics; host or cells: left ventricle of Yucatan minipigs
Procedure, shortened: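 NADH depletion (A340) coupled through pyruvate kinase/lactate dehydrogenase reports ATPase rate of porcine left-ventricle myofibrils over 75 min kinetic reads. Regression slopes, vehicle-normalized, fitted by 4-parameter logistic give EC25 and, where available, EC50.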

[3] = EDV (LV volume, Teichholz formula), read-out: EDV % vs. VEH
[4] = LV fractional shortening, read-out: FS % vs. VEH
[5] = heart rate, read-out: HR % vs. VEH
[6] = systolic wall-thickening index, read-out: SWT % vs. VEH

T1 sequence (P79293 whole entry): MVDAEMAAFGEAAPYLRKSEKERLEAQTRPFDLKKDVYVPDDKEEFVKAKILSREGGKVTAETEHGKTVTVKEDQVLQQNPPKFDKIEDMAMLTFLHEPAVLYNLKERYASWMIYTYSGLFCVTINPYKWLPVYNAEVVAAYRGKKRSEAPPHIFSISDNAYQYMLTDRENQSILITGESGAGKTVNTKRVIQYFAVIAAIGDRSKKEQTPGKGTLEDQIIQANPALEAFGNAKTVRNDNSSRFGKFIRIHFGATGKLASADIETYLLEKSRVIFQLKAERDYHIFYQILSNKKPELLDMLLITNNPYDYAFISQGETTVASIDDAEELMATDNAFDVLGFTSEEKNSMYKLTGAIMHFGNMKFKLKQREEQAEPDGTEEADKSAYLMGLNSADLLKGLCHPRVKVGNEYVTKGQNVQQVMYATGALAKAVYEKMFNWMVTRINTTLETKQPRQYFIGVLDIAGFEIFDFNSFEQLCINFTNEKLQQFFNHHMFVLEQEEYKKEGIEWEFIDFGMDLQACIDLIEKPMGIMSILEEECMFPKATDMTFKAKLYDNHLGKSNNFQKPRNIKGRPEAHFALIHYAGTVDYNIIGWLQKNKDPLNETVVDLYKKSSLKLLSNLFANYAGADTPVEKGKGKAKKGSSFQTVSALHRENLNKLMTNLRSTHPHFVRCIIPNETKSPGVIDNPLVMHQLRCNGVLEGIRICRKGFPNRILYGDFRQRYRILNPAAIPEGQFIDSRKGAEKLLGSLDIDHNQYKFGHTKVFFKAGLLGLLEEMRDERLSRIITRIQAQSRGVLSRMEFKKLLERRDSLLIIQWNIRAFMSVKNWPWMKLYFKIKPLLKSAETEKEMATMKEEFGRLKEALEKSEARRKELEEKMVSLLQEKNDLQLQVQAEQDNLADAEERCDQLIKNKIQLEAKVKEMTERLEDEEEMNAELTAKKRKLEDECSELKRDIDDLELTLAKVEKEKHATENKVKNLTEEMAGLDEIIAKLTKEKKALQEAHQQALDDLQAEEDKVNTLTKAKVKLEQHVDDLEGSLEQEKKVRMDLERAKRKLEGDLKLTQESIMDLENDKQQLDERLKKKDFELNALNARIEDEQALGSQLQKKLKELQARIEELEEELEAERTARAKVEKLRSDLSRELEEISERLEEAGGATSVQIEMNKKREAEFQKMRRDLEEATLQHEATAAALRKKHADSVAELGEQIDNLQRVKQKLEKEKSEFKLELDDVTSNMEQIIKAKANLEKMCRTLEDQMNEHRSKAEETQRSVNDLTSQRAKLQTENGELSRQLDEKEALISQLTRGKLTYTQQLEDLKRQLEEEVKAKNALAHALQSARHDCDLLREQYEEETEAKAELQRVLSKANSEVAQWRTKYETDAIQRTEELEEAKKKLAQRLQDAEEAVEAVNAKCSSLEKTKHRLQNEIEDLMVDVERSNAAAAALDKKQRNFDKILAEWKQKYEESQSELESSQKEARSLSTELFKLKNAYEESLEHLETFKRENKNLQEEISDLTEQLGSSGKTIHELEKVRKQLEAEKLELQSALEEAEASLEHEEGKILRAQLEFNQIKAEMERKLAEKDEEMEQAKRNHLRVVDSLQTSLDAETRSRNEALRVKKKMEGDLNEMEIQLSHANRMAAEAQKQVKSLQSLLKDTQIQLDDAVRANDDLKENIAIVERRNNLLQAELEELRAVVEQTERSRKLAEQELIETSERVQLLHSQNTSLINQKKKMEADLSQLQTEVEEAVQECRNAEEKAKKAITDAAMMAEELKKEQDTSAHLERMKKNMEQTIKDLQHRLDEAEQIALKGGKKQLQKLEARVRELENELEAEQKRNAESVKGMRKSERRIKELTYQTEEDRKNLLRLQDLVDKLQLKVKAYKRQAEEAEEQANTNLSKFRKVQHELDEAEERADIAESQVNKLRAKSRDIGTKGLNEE

Porcine Ventricle IC25 ([2]; Table 8) | Porcine Ventricle IC25 ([2]; Table 7) | Compound | change in vivo at 10 mg/kg [1, 3] | change in vivo at 10 mg/kg [1, 4] | change in vivo at 10 mg/kg [1, 5] | change in vivo at 10 mg/kg [1, 6]
166.7 nM |  | N#Cc1cnc2c(c1)OCC2NC(=O)CN1Cc2c(ccc(F)c2F)NC1=O (single isomer, unassigned) [Compound B65] | 22% | -61% | 22% | -53%
47.69 nM |  | CC(NC(=O)CN1Cc2cc(F)ccc2NC1=O)c1ccc(C#N)cc1F (single isomer, unassigned) [Compound B206] | 29% | -67% | 7% | -57%
3094 nM |  | C[C@@H](NC(=O)CN1Cc2c(ccc(F)c2F)NC1=O)c1ncc(C#N)cc1F [Compound B141, (R)—N-(1-(5-cyano-3-fluoropyridin-2-yl)ethyl)-2-(5,6-difluoro-2-oxo-1,4-dihydroquinazolin-3(2H)-yl)acetamide] | -3% | -15% | 13% | -19%
51.2 nM |  | O=C(CN1Cc2cc(F)ccc2NC1=O)N[C@@H]1COc2cc(F)cc(F)c21 [Compound B145] | 11% | -42% | 7% | -39%
77.66 nM |  | O=C(CN1Cc2c(ccc(F)c2F)NC1=O)N[C@@H]1COc2cc(F)cc(F)c21 [Compound B147] | 10% | -35% | 10% | -37%
77.43 nM |  | C[C@H](NC(=O)CN1Cc2c(ccc(F)c2F)NC1=O)c1ccc(C#N)cc1F [Compound B189] | 19% | -13% | -5% | -29%
191.3 nM |  | C[C@H](NC(=O)CN1Cc2c(ccc(F)c2F)NC1=O)c1ncc(F)cc1F [Compound B191] | 9% | -59% | 17% | -59%
569.3 nM |  | C[C@H](NC(=O)CN1Cc2cc(F)ccc2NC1=O)c1ncc(C#N)cc1F [Compound B199] | 11% | -54% | 22% | -55%
296.8 nM |  | C[C@H](NC(=O)CN1Cc2cc(F)ccc2NC1=O)c1ccc(F)cc1F [Compound B247, N-[(1S)-1-(2,4-Difluorophenyl)ethyl]-2-(6-fluoro-2-oxo-1,4-dihydroquinazolin-3-yl)acetamide] | 7% | -31% | 7% | -35%
 | 283.2 nM | O=C(CN1C(=O)Nc2cccnc2C12CC2)N[C@@H]1COc2cc(F)cc(F)c21 [Compound N33] | 2% | -10% | 6% | -5%

— patent US12509431B2, “1,4-dihydroquinazolinone compounds and uses thereof” (Edgewise Therapeutics, Inc., priority 2022, dated 2025)
